{
  "source": "PubChem BioAssay AID1918955",
  "about": "(Molecular Pharmacology Branch, DTP, NCI, 2023)",
  "tested_on": "NCI/ADR-RES complex spheroid viability",
  "assay": "Anticancer human tumor NCI/ADR-RES cell line growth inhibition;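 also: spheroids exposed to compounds for 7 days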;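 as to viability, T/C: 100% = DMSO vehicle treated spheroids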",
  "conditions": "for IC50: curve of first compound; for viability, T/C: stronger effect = lower value",
  "procedure,_shortened": "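Multicellular complex spheroids of tumor cells with human endothelial cells (HUVEC) and mesenchymal stem cells; the LSD1 inhibitor iadademstat was combined with standard-of-care or investigational agents. Top concentration at or near clinical Cmax, half-log dilutions; final DMSO ≤0.25%.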",
  "data": [
    {"smiles": "CC[C@@]1(O)C(=O)OCc2c1cc1n(c2=O)Cc2cc3c(CN(C)C)c(O)ccc3nc2-1", "note": "+ NC1CCC(NC2CC2c2ccccc2)CC1", "values": [
      {"measurement": "IC50", "setting": "second compound 0.1 µM", "value": 8.31, "unit": "nM"},
      {"measurement": "IC50", "setting": "second compound 0.316 µM", "value": 8.18, "unit": "nM"},
      {"measurement": "IC50", "setting": "second compound 1 µM", "value": 9.09, "unit": "nM"},
      {"measurement": "IC50", "setting": "second compound 3.16 µM", "value": 7.45, "unit": "nM"},
      {"measurement": "IC50", "setting": "second compound 10 µM", "value": 5.56, "unit": "nM"},
      {"measurement": "viability, T/C", "setting": "second compound 0.1 µM, first compound 0.000316 µM", "value": 104, "unit": "%"},
      {"measurement": "viability, T/C", "setting": "second compound 0.1 µM, first compound 0.001 µM", "value": 97.8, "unit": "%"},
      {"measurement": "viability, T/C", "setting": "second compound 0.1 µM, first compound 0.00316 µM", "value": 86.5, "unit": "%"},
      {"measurement": "viability, T/C", "setting": "second compound 0.1 µM, first compound 0.01 µM", "value": 43.4, "unit": "%"},
      {"measurement": "viability, T/C", "setting": "second compound 0.1 µM, first compound 0.0316 µM", "value": 9.03, "unit": "%"},
      {"measurement": "viability, T/C", "setting": "second compound 0.1 µM, first compound 0.1 µM", "value": 3.21, "unit": "%"},
      {"measurement": "viability, T/C", "setting": "second compound 0.316 µM, first compound 0.000316 µM", "value": 118, "unit": "%"},
      {"measurement": "viability, T/C", "setting": "second compound 0.316 µM, first compound 0.001 µM", "value": 116, "unit": "%"},
      {"measurement": "viability, T/C", "setting": "second compound 0.316 µM, first compound 0.00316 µM", "value": 86.7, "unit": "%"},
      {"measurement": "viability, T/C", "setting": "second compound 0.316 µM, first compound 0.01 µM", "value": 42.9, "unit": "%"},
      {"measurement": "viability, T/C", "setting": "second compound 0.316 µM, first compound 0.0316 µM", "value": 10.8, "unit": "%"},
      {"measurement": "viability, T/C", "setting": "second compound 0.316 µM, first compound 0.1 µM", "value": 2.57, "unit": "%"},
      {"measurement": "viability, T/C", "setting": "second compound 1 µM, first compound 0.000316 µM", "value": 103, "unit": "%"},
      {"measurement": "viability, T/C", "setting": "second compound 1 µM, first compound 0.001 µM", "value": 103, "unit": "%"},
      {"measurement": "viability, T/C", "setting": "second compound 1 µM, first compound 0.00316 µM", "value": 92.9, "unit": "%"},
      {"measurement": "viability, T/C", "setting": "second compound 1 µM, first compound 0.01 µM", "value": 46.2, "unit": "%"},
      {"measurement": "viability, T/C", "setting": "second compound 1 µM, first compound 0.0316 µM", "value": 8.05, "unit": "%"},
      {"measurement": "viability, T/C", "setting": "second compound 1 µM, first compound 0.1 µM", "value": 2.63, "unit": "%"},
      {"measurement": "viability, T/C", "setting": "second compound 3.16 µM, first compound 0.000316 µM", "value": 108, "unit": "%"},
      {"measurement": "viability, T/C", "setting": "second compound 3.16 µM, first compound 0.001 µM", "value": 98.8, "unit": "%"},
      {"measurement": "viability, T/C", "setting": "second compound 3.16 µM, first compound 0.00316 µM", "value": 91.3, "unit": "%"},
      {"measurement": "viability, T/C", "setting": "second compound 3.16 µM, first compound 0.01 µM", "value": 35.6, "unit": "%"},
      {"measurement": "viability, T/C", "setting": "second compound 3.16 µM, first compound 0.0316 µM", "value": 10.1, "unit": "%"},
      {"measurement": "viability, T/C", "setting": "second compound 3.16 µM, first compound 0.1 µM", "value": 4.55, "unit": "%"},
      {"measurement": "viability, T/C", "setting": "second compound 10 µM, first compound 0.000316 µM", "value": 98.5, "unit": "%"},
      {"measurement": "viability, T/C", "setting": "second compound 10 µM, first compound 0.001 µM", "value": 95.3, "unit": "%"},
      {"measurement": "viability, T/C", "setting": "second compound 10 µM, first compound 0.00316 µM", "value": 66.8, "unit": "%"},
      {"measurement": "viability, T/C", "setting": "second compound 10 µM, first compound 0.01 µM", "value": 32, "unit": "%"},
      {"measurement": "viability, T/C", "setting": "second compound 10 µM, first compound 0.0316 µM", "value": 7.06, "unit": "%"},
      {"measurement": "viability, T/C", "setting": "second compound 10 µM, first compound 0.1 µM", "value": 2.23, "unit": "%"}
    ]},
    {"smiles": "CCc1c2c(nc3ccc(O)cc13)-c1cc3c(c(=O)n1C2)COC(=O)[C@]3(O)CC", "note": "+ NC1CCC(NC2CC2c2ccccc2)CC1", "values": [
      {"measurement": "IC50", "setting": "second compound 0.1 µM", "value": "< 0.949", "unit": "nM"},
      {"measurement": "IC50", "setting": "second compound 0.316 µM", "value": "< 0.949", "unit": "nM"},
      {"measurement": "IC50", "setting": "second compound 1 µM", "value": "< 0.949", "unit": "nM"},
      {"measurement": "IC50", "setting": "second compound 3.16 µM", "value": "< 0.949", "unit": "nM"},
      {"measurement": "IC50", "setting": "second compound 10 µM", "value": "< 0.949", "unit": "nM"},
      {"measurement": "viability, T/C", "setting": "second compound 0.1 µM, first compound 0.000949 µM", "value": 5.27, "unit": "%"},
      {"measurement": "viability, T/C", "setting": "second compound 0.1 µM, first compound 0.003 µM", "value": 2.59, "unit": "%"},
      {"measurement": "viability, T/C", "setting": "second compound 0.1 µM, first compound 0.00949 µM", "value": 0.6, "unit": "%"},
      {"measurement": "viability, T/C", "setting": "second compound 0.1 µM, first compound 0.03 µM", "value": 1.16, "unit": "%"},
      {"measurement": "viability, T/C", "setting": "second compound 0.1 µM, first compound 0.0949 µM", "value": 1.11, "unit": "%"},
      {"measurement": "viability, T/C", "setting": "second compound 0.1 µM, first compound 0.3 µM", "value": 3.88, "unit": "%"},
      {"measurement": "viability, T/C", "setting": "second compound 0.316 µM, first compound 0.000949 µM", "value": 2.94, "unit": "%"},
      {"measurement": "viability, T/C", "setting": "second compound 0.316 µM, first compound 0.003 µM", "value": 1.44, "unit": "%"},
      {"measurement": "viability, T/C", "setting": "second compound 0.316 µM, first compound 0.00949 µM", "value": 1.36, "unit": "%"},
      {"measurement": "viability, T/C", "setting": "second compound 0.316 µM, first compound 0.03 µM", "value": 2.53, "unit": "%"},
      {"measurement": "viability, T/C", "setting": "second compound 0.316 µM, first compound 0.0949 µM", "value": 0.44, "unit": "%"},
      {"measurement": "viability, T/C", "setting": "second compound 0.316 µM, first compound 0.3 µM", "value": 0.37, "unit": "%"},
      {"measurement": "viability, T/C", "setting": "second compound 1 µM, first compound 0.000949 µM", "value": 6.45, "unit": "%"},
      {"measurement": "viability, T/C", "setting": "second compound 1 µM, first compound 0.003 µM", "value": 1.09, "unit": "%"},
      {"measurement": "viability, T/C", "setting": "second compound 1 µM, first compound 0.00949 µM", "value": 1.09, "unit": "%"},
      {"measurement": "viability, T/C", "setting": "second compound 1 µM, first compound 0.03 µM", "value": 1.03, "unit": "%"},
      {"measurement": "viability, T/C", "setting": "second compound 1 µM, first compound 0.0949 µM", "value": 0.47, "unit": "%"},
      {"measurement": "viability, T/C", "setting": "second compound 1 µM, first compound 0.3 µM", "value": 0.58, "unit": "%"},
      {"measurement": "viability, T/C", "setting": "second compound 3.16 µM, first compound 0.000949 µM", "value": 2.6, "unit": "%"},
      {"measurement": "viability, T/C", "setting": "second compound 3.16 µM, first compound 0.003 µM", "value": 1.07, "unit": "%"},
      {"measurement": "viability, T/C", "setting": "second compound 3.16 µM, first compound 0.00949 µM", "value": 0.88, "unit": "%"},
      {"measurement": "viability, T/C", "setting": "second compound 3.16 µM, first compound 0.03 µM", "value": 0.53, "unit": "%"},
      {"measurement": "viability, T/C", "setting": "second compound 3.16 µM, first compound 0.0949 µM", "value": 1.24, "unit": "%"},
      {"measurement": "viability, T/C", "setting": "second compound 3.16 µM, first compound 0.3 µM", "value": 2.59, "unit": "%"},
      {"measurement": "viability, T/C", "setting": "second compound 10 µM, first compound 0.000949 µM", "value": 4.02, "unit": "%"},
      {"measurement": "viability, T/C", "setting": "second compound 10 µM, first compound 0.003 µM", "value": 1.26, "unit": "%"},
      {"measurement": "viability, T/C", "setting": "second compound 10 µM, first compound 0.00949 µM", "value": 0.71, "unit": "%"},
      {"measurement": "viability, T/C", "setting": "second compound 10 µM, first compound 0.03 µM", "value": 0.53, "unit": "%"},
      {"measurement": "viability, T/C", "setting": "second compound 10 µM, first compound 0.0949 µM", "value": 0.22, "unit": "%"},
      {"measurement": "viability, T/C", "setting": "second compound 10 µM, first compound 0.3 µM", "value": 4.32, "unit": "%"}
    ]}
  ]
}
